The text below walks through data of article PMC4644980, “The FDA-approved natural product dihydroergocristine reduces the production of the Alzheimer’s disease amyloid-β peptides” (Scientific Reports, 2015).

Values joined by “and” are separate entries in the source; they are usually repeats but may differ in a detail not shown here. Equal values may be shown once. Where a name gives a salt, the structure may show the parent alone.

The target in one assay is γ-secretase (Homo sapiens, UniProt P49768+Q92542). Briefly: cell-based luciferase reporter assay for γ-secretase inhibition (T100 cells). More on the design: endogenous in cells; host or cells: T-REx HeLa cells (T100) stably transfected with the substrate C99-Gal4-VP16 and a luciferase reporter. To be noted: 24 h, read-out: IC50 for inhibiting the activity of γ-secretase in T100 cells. Here is the method: To identify natural product-based bioactive inhibitors of γ-secretase, we screened 417 natural products by using a cell-based luciferase reporter assay for γ-secretase inhibition (T100, see Methods), which we recently developed in TREx HeLa cells according to the methodology described in ref. [17]. […] Thus, this assay is sufficiently sensitive to detect the inhibitory effects of 100 nM DAPT on cellular γ-secretase activity. Additionally, this new cell-based assay tolerated up to 2% DMSO, which is a great advantage when screening inhibitors in a high-throughput format.
T-REx-HeLa cells (T100) stably overexpressing C99-Gal4-VP16 and luciferase were generated according to the method described in refs [17],[30]. For details, see Supplementary Information.
Cell-based γ-secretase assays were performed using the T100 cell line according to the methods detailed in ref. [30] (for details, see Supplementary information). […]
concentrations of substrate at 37 °C for 4 h, after which the enzymatic reactions were stopped by adding 0.5% SDS (final concentration). The samples were analyzed by Western Blot for AICD-Flag or Aβ. […]

Assay [1] has as its system γ-secretase subunits (mNCT, PS1-NTF). In words: Western blot of γ-secretase subunits in HEK293 or fibroblast cells. The assay is classed as cell-based. Here is the method: for 10 min before adding 25 µl of the stop solution. The fluorescence was monitored with a microplate reader (emission at 590 nm after excitation at 560 nm).
Western blot and antibodies
WT HEK293 or fibroblast cells were collected and lysed in 1% Nonidet P-40-HEPES buffer, and equal amounts of proteins [normalized by BCA (Pierce)] were separated by SDS-PAGE onto a 12% Tris-glycine gel, transferred onto a PVDF membrane (Bio-Rad, USA) and further probed with antibody CT15 (for APP/APP-CTFs, 1:2000, […]
(1:1000; Abcam, Cambridge, MA, USA) for PS1-NTF, UD-1 (for Pen-2, 1:500; a gift of Dr. Helena Karlström, Karolinska Institute, Sweden), NCT164 (for NCT, 1:1000; BD Bioscience, Bedford, MA, USA) as well as with an antibody for β-actin (1:2000, Abmart). For the analysis of Notch NICD, cell extracts were separated by SDS-PAGE onto a 10% Tris-glycine gel, transferred onto a PVDF membrane and blotted for NICD with an anti-Notch Ab1744 antibody (for the free N-terminus of NICD, 1:500, Cell Signaling Technology, Beverly, MA, USA).
Samples from in vitro γ-secretase activity assays were run on 16% Tricine-SDS-PAGE gels and transferred onto PVDF to detect Aβ and AICD-Flag with 6E10 (1:1000, Covance, Berkeley, CA, USA) and CT15 antibodies (1:5000, Sigma-Aldrich), […]

For the compound `CC(C)[C@@]1(NC(=O)[C@@H]2C[C@@H]3c4cccc5[nH]cc(c45)C[C@H]3N(C)C2)O[C@@]2(O)[C@@H]3CCCN3C(=O)[C@H](Cc3ccccc3)N2C1=O` [DHEC, Dihydroergocristine methanesulfonate salt], the IC50 at γ-secretase was 20 µM and ~25 µM. The “assembly and maturation of the protease complex (mNCT, PS1-NTF)” value in assay [1] is on record as “not altered”.
